activation, EC50 and Emax data for 21 molecules are collected here from patent publication US8119624B2, “Fused phenyl amido heterocyclic compounds” (Pfizer Inc., priority 2006, dated 2012).

The assay deals with T1, Full-length glucokinase (beta cell isoform) (Homo sapiens, UniProt P35557).
T1 construct: Full-length glucokinase (beta cell isoform) was His-tagged at N-terminus; His tag (N); made in house
T1 sequence (P35557 1-465): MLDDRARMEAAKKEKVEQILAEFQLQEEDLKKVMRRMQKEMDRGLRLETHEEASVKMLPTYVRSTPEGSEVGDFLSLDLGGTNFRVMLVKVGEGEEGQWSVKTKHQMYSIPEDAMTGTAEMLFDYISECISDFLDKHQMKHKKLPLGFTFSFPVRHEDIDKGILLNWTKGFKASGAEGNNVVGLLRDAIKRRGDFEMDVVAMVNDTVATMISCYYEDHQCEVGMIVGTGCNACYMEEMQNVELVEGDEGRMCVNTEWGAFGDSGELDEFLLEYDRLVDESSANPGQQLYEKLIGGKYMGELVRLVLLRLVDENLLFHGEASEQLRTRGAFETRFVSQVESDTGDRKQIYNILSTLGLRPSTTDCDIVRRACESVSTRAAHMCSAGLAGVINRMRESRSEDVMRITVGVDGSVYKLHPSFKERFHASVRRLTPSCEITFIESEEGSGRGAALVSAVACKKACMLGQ
Briefly: Glucokinase biochemical assay (PK/LDH-coupled, NADH depletion at 340 nm): % activation, EC50, % max activation. The conditions noted are these: 5 mM glucose; for activation at 10 µM: read-out: % Activation at 10 uM; for EC50: read-out: EC50; for Emax: fitted maximum activation, read-out: % Max Activation. The method, then:
Full-length glucokinase (beta cell isoform) was His-tagged at N-terminus and purified by a Ni column followed by size exclusion chromatography. Glucose was obtained from Calbiochem, and other reagents were from Sigma.
All assays were performed in a Corning 96-well plate using Spectramax PLUS spectrophotometer (Molecular Devices) at room temperature. The final assay volume was 100 uL. The buffer conditions used in this assay were as follows: 50 mM HEPES, 5 mM glucose, 1 mM ATP, 2 mM MgCl2, 0.7mM NADH, 2 mM DTT, 1 Unit/mL PK/LDH, 0.2 mM phosphoenolpyruvate, 25 mM KCl. Tested compound in DMSO solution was added to the buffer and mixed well by a plate shaker for 1 minute. The final concentration of DMSO introduced into the assay was 1%.
Glucokinase was added to the buffer mixture to initiate the reaction in the presence and absence of compound. Reaction was monitored by absorbance at 340nm due to the depletion of NADH. The initial reaction velocity was measured by the slope of a linear time course of 200-900 sec.
The percentage of activation was calculated by the following equation: % Activation=(Va/Vo−1)×100;
wherein each of Va and Vo is defined as the initial reaction velocity in the presence and absence of the tested compound, respectively.
The GK activities were measured as a function of compound concentrations.

The mark [1] stands for this setting: 10 uM compound, % Activation=(Va/Vo−1)×100.
The mark [2] stands for this setting: compound at 10 uM, 1 mM ATP, room temperature.

SMILES strings stand for the structures. Like-named read-outs stand apart in the source and are kept apart here.

With `Cn1ncc(NC(=O)c2cc(Oc3ccc(S(C)(=O)=O)cc3)c3cc(C(=O)N4CCC4)oc3c2)n1` [Example 292, 2-(Azetidin-1-ylcarbonyl)-4-[4-(methylsulfonyl)phenoxy]-N-(2-methyl-2H-1,2,3-triazol-4-yl)-1-benzofuran-6-carboxamide], under setting [1], the activation at 10 µM came to 16.7%.
Consider `CN(C)C1CN(C(=O)c2ccc(Oc3cc(C(=O)Nc4ccn(C)n4)cc4c3CC(C)(C)O4)cc2)C1` [Example 49, 4-[4-(3-Dimethylamino-azetidine-1-carbonyl)-phenoxy]-2,2-dimethyl-2,3-dihydro-benzofuran-6-carboxylic acid(1-methyl-1H-pyrazol-3-yl)-amide], for which the Emax is 147%. The activation at 10 µM under setting [1] amounted to 133%. Besides, the EC50 (GK activation) came to 455 nM.
With `Cn1ncc(NC(=O)c2cc(Oc3ccc(S(C)(=O)=O)cc3)c3c(c2)OC(C)(C)C3)n1` [Example 20, 4-(4-Methanesulfonyl-phenoxy)-2,2-dimethyl-2,3-dihydro-benzofuran-6-carbo-xylic acid(2-methyl-2H-[1,2,3]triazol-4-yl)-amide], the Emax came out at 231%. Moreover, the activation at 10 µM under setting [1] was determined as 230%. Also, the EC50 (GK activation) was determined as 314 nM.
With `Cn1ccc(NC(=O)c2cc(Oc3ccc(C(=O)N4CC(F)(F)C4)cc3F)c3c(c2)OC(C)(C)C3)n1` [Example 43, 4-[4-(3,3-Difluoro-azetidine-1-carbonyl)-2-fluoro-phenoxy]-2,2-dimethyl-2,3-dihydro-benzofuran-6-carboxylic acid(1-methyl-1H-pyrazol-3-yl)-amide], the Emax was 174%. The activation at 10 µM under setting [1] stood at 164%. In addition, where the note is “GK activation”, the concentration for a half-maximal effect (EC50) was 730 nM.
With `CN(C)C(=O)c1ccc(Oc2cc(C(=O)Nc3ccn(C)n3)cc3c2CC(C)(C)O3)cn1` [Example 161, 5-[2,2-Dimethyl-6-(1-methyl-1H-pyrazol-3-ylcarbamoyl)-2,3-dihydro-benzofuran-4-yloxy]-pyridine-2-carboxylic acid dimethylamide], the Emax is 143%. Further, under setting [1], the activation at 10 µM was found to be 191%. Further, the half-maximal effective concentration (EC50) (GK activation) is 175 nM.
`COc1ccnc(NC(=O)c2cc(Oc3ccc(S(C)(=O)=O)cc3)c3cc(C)oc3c2)c1` [Example 259, N-(4-Methoxypyridin-2-yl)-2-methyl-4-(4-(methylsulfonyl)-phenoxy)-benzofuran-6-carboxamide]: the Emax came to 60%. Moreover, under setting [1], the activation at 10 µM is 63.6%. In addition, the concentration for a half-maximal effect (EC50) (GK activation) is 1000 nM.
For `Cn1ncc(NC(=O)c2cc(Oc3ccc(C(=O)N4CCC4)cc3)c3c(c2)OC(C)(C)C3)n1` [Example 160, 4-[4-(Azetidine-1-carbonyl)-phenoxy]-2,2-dimethyl-2,3-dihydro-benzofuran-6-carboxylic acid (2-methyl-2H-[1,2,3]triazol-4-yl)-amide], the Emax was found to be 250%. Also, the activation at 10 µM under setting [1] turned out to be 298%. For the same molecule, the 50% effective concentration (EC50) (GK activation) was 130 nM.
For the molecule `COCC(C)Oc1cc(C(=O)Nc2ccn(C)n2)cc2c1CC(C)(C)O2` (stereo not shown) [Example 84, 4-(2-Methoxy-1-methyl-ethoxy)-2,2-dimethyl-2,3-dihydro-benzofuran-6-carboxylic acid (1-methyl-1H-pyrazol-3-yl)-amide], the activation at 10 µM under setting [1] came to 58.4%. Moreover, the 50% effective concentration (EC50) (GK activation) is greater than 10000 nM.
Turning to `Cn1ccc(NC(=O)c2cc(Oc3ccc(S(C)(=O)=O)cc3)c3cc(CO)oc3c2)n1` [Example 317, 2-(Hydroxymethyl)-N-(1-methyl-1H-pyrazol-3-yl)-4-[4-(methylsulfonyl)-phenoxy]-1-benzofuran-6-carboxamide], the Emax was determined as 228%. Further, the activation at 10 µM under setting [1] turned out to be 186%. Moreover, under “GK activation”, the EC50 was found to be 1700 nM.
Regarding `Cn1ccc(NC(=O)c2cc(Oc3ccc(S(C)(=O)=O)cc3)c3sccc3c2)n1` [Example 364, 7-(4-(Methylsulfonyl)phenoxy)-N-(1-methyl-1H-pyrazol-3-yl)benzo-[b]-thiophene-5-carboxamide], the activation at 10 µM under setting [1] is 45.8%. For the same molecule, the concentration for a half-maximal effect (EC50) (GK activation) was greater than 10000 nM.
For `COCCN1Cc2c(Oc3ccc(S(C)(=O)=O)cc3)cc(C(=O)Nc3ccn(C)n3)cc2C1=O` [Example 388, 2-(2-Methoxyethyl)-N-(1-methyl-1H-pyrazol-3-yl)-7-(4-(methylsulfonyl)-phenoxy)-3-oxoisoindoline-5-carboxamide], the activation at 10 µM under setting [2] was 39.7%.
As to `CNC(=O)c1c(F)cc(Oc2cc(C(=O)Nc3ccn(C)n3)cc3c2CC(C)(C)O3)cc1F` [Example 400, 4-(3,5-Difluoro-4-methylcarbamoyl-phenoxy)-2,2-dimethyl-2,3-dihydro-benzofuran-6-carboxylic acid(1-methyl-1H-pyrazol-3-yl)-amide], the EC50 (1 mM ATP, room temperature) turned out to be 140 nM. The activation at 10 µM under setting [2] came out at 192%. Further, the Emax (1 mM ATP) came to 177%.
As for `CN(C)C1CN(C(=O)c2ccc(Oc3cc(C(=O)Nc4ccn(C)n4)cc4c3CC(C)(C)O4)cc2F)C1` [Example 57, 4-[4-(3-Dimethylamino-azetidine-1-carbonyl)-3-fluoro-phenoxy]-2,2-dimethyl-2,3-dihydro-benzofuran-6-carboxylic acid(1-methyl-1H-pyrazol-3-yl)-amide], the Emax was found to be 148%. The activation at 10 µM under setting [1] was 131%. Moreover, the concentration for a half-maximal effect (EC50) (GK activation) is 643 nM.
Consider `Cc1ccc(NC(=O)c2cc(Oc3ccc(C(=O)N(C)C)c(F)c3)c3cc(C)sc3c2)nc1` [Example 361, 4-(4-(Dimethylcarbamoyl)-3-fluorophenoxy)-2-methyl-N-(5-methylpyridin-2-yl)benzo[b]thiophene-6-carboxamide], for which the activation at 10 µM under setting [1] was found to be 4.2%.
Take `CCS(=O)(=O)c1ccc(Oc2cc(C(=O)Nc3ccn(C)n3)cc3c2CC(C)(C)O3)cc1` [Example 127, 4-(4-Ethanesulfonyl-phenoxy)-2,2-dimethyl-2,3-dihydro-benzofuran-6-carboxylic acid (1-methyl-1H-pyrazol-3-yl)-amide]: the Emax turned out to be 165%. Also, the activation at 10 µM under setting [1] was 193%. Moreover, the 50% effective concentration (EC50) (GK activation) came to 66 nM.
As to `CS(=O)(=O)c1ccc(Oc2cc(C(=O)Nc3ccccn3)cc3scnc23)cc1` [Example 372, 4-[4-(Methylsulfonyl)phenoxy]-N-pyridin-2-yl-1,3-benzothiazole-6-carboxamide], the activation at 10 µM under setting [1] was determined as 29.3%.
As to `Cc1ccc(NC(=O)c2cc(Oc3cc(F)ccc3S(C)(=O)=O)c3c(c2)OC(C)(CO)C3)nc1` (stereo not shown) [Example 236, 4-(5-Fluoro-2-methanesulfonyl-phenoxy)-2-hydroxymethyl-2-methyl-2,3-dihydro-benzofuran-6-carboxylic acid (5-methyl-pyridin-2-yl)-amide], the Emax amounted to 66%. In addition, under setting [1], the activation at 10 µM was determined as 55.6%. Moreover, for the setting “GK activation”, the half-maximal effective concentration (EC50) turned out to be 2700 nM.
Consider `Cn1ccc(NC(=O)c2cc(Oc3ccc(S(C)(=O)=O)cc3)c3cc(C(F)F)oc3c2)n1` [Example 322, 2-(Difluoromethyl)-N-(1-methyl-1H-pyrazol-3-yl)-4-[4-(methylsulfonyl)-phenoxy]-1-benzofuran-6-carboxamide], for which the Emax amounted to 235%. Further, the activation at 10 µM under setting [1] was 161%. In addition, the EC50 (GK activation) worked out at 6300 nM.
`Cn1ccc(NC(=O)c2cc(Oc3ccc(C(=O)NC4CCC4)c(F)c3)c3c(c2)OC(C)(C)C3)n1` [Example 74, 4-(4-Cyclobutylcarbamoyl-3-fluoro-phenoxy)-2,2-dimethyl-2,3-dihydro-benzofuran-6-carboxylic acid(1-methyl-1H-pyrazol-3-yl)-amide]: the Emax worked out at 258%. Also, the activation at 10 µM under setting [1] came to 285%. In addition, under “GK activation”, the 50% effective concentration (EC50) amounted to 540 nM.
In the case of `Cn1ncc(NC(=O)c2cc(Oc3ccc(S(C)(=O)=O)c(Cl)c3)c3c(c2)OC(C)(C)C3)n1` [Example 118, 4-(3-Chloro-4-methanesulfonyl-phenoxy)-2,2-dimethyl-2,3-dihydro-benzofuran-6-carboxylic acid (2-methyl-2H-[1,2,3]triazol-4-yl)-amide], the Emax was found to be 251%. Further, the activation at 10 µM under setting [1] was 244%. The concentration giving a half-maximal response (EC50) (GK activation) came to 320 nM.
`Cn1ccc(NC(=O)c2cc(Oc3ccc(S(C)(=O)=O)cc3)c3ccsc3c2)n1` [Example 356, 4-(4-(Methylsulfonyl)phenoxy)-N-(1-methyl-1H-pyrazol-3-yl)benzo-[b]-thiophene-6-carboxamide]: under setting [1], the activation at 10 µM was determined as 77.4%. In addition, the EC50 (GK activation) is greater than 10000 nM.

As usually defined, the EC50 is the concentration that produces a half-maximal response.
